Assay results as given in PubChem BioAssay AID330 (DTP/NCI, 2004).
Several values for one entry are separate records, joined by “and”; a condition that tells them apart may be missing. Equal entries are not always repeated. Inconclusive results and toxic doses are left out.

System: P388 leukemia ip, CD2F1 mice, survival T/C
Assay: NCI In Vivo Anticancer Drug Screen. Data for tumor model P388 Leukemia (intraperitoneal) in CD2F1 (CDF1) mice
Conditions: endpoint: median survival time, higher = longer survival
Method in brief: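 Mice carrying the transplanted tumor received test compound or vehicle. Survival was recorded in each group, and the value is the treated-group measurement divided by that of the vehicle-treated control group.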

[1] = dose: 50.0 mg/kg/injection, schedule: Q01DX005 (ip), vehicle: Klucel (hydroxypropylcellulose) (HPC)
[2] = dose: 100.0 mg/kg/injection, schedule: Q01DX005 (ip), vehicle: Klucel (hydroxypropylcellulose) (HPC)
[3] = dose: 200.0 mg/kg/injection, schedule: Q01DX005 (ip), vehicle: Klucel (hydroxypropylcellulose) (HPC)
[4] = dose: 50.0 mg/kg/injection, schedule: Q01DX009 (ip), vehicle: saline with Tween-80
[5] = dose: 100.0 mg/kg/injection, schedule: Q01DX009 (ip), vehicle: saline with Tween-80
[6] = dose: 200.0 mg/kg/injection, schedule: Q01DX009 (ip), vehicle: saline with Tween-80
[7] = dose: 60.0 mg/kg/injection, schedule: Q01DX005 (ip), vehicle: Klucel (hydroxypropylcellulose) (HPC)
[8] = dose: 120.0 mg/kg/injection, schedule: Q01DX005 (ip), vehicle: Klucel (hydroxypropylcellulose) (HPC)
[9] = dose: 240.0 mg/kg/injection, schedule: Q01DX005 (ip), vehicle: Klucel (hydroxypropylcellulose) (HPC)
[10] = dose: 100.0 mg/kg/injection, schedule: Q01DX001 (ip), vehicle: saline with Tween-80
[11] = dose: 100.0 mg/kg/injection, schedule: Q01DX005 (ip), vehicle: saline with Tween-80
[12] = dose: 200.0 mg/kg/injection, schedule: Q01DX001 (ip), vehicle: saline with Tween-80
[13] = dose: 200.0 mg/kg/injection, schedule: Q01DX005 (ip), vehicle: saline
[14] = dose: 50.0 mg/kg/injection, schedule: Q01DX005 (ip), vehicle: saline with Tween-80
[15] = dose: 200.0 mg/kg/injection, schedule: Q01DX005 (ip), vehicle: saline with Tween-80
[16] = dose: 50.0 mg/kg/injection, schedule: Q01DX009 (ip), vehicle: saline
[17] = dose: 100.0 mg/kg/injection, schedule: Q01DX009 (ip), vehicle: saline
[18] = dose: 25.0 mg/kg/injection, schedule: Q01DX009 (ip), vehicle: Klucel (hydroxypropylcellulose) (HPC)
[19] = dose: 50.0 mg/kg/injection, schedule: Q01DX009 (ip), vehicle: Klucel (hydroxypropylcellulose) (HPC)

Structure (SMILES): COc1ccc2nc3cc(Cl)ccc3c(NCCCC3CCCN4CCCCC34)c2c1 (centres undefined)
- T/C (dose: 7.5 mg/kg/injection, schedule: Q01DX005 (ip), vehicle: saline with Tween-80): 108 % of control
- T/C (dose: 15.0 mg/kg/injection, schedule: Q01DX005 (ip), vehicle: saline with Tween-80): 108 % of control
- T/C (dose: 30.0 mg/kg/injection, schedule: Q01DX005 (ip), vehicle: saline with Tween-80): 111 % of control

Structure (SMILES): O=c1ccc2cc3ccoc3c(OCCCCCCCCCCCCOc3c4occc4cc4ccc(=O)oc34)c2o1
- T/C (dose: 6.25 mg/kg/injection, schedule: Q01DX005 (ip), vehicle: saline with Tween-80): 100 % of control
- T/C (dose: 12.5 mg/kg/injection, schedule: Q01DX005 (ip), vehicle: saline with Tween-80): 100 % of control
- T/C (dose: 25.0 mg/kg/injection, schedule: Q01DX005 (ip), vehicle: saline with Tween-80): 88 % of control

Structure (SMILES): COc1cc(/C=C2\SC(=S)N(c3ccc(Cl)c(Cl)c3)C2=O)ccc1O
- T/C [1]: 89 % of control
- T/C [2]: 86 % of control
- T/C [3]: 89 % of control

Structure (SMILES): CCOCc1cnc(C)nc1N
- T/C [4]: 110 % of control
- T/C [5]: 120 % of control
- T/C [6]: 110 % of control

Structure (SMILES): c1ncn(C23CC4CC(CC(C4)C2)C3)n1
- T/C (dose: 1.56 mg/kg/injection, schedule: Q01DX001 (ip), vehicle: Klucel (hydroxypropylcellulose) (HPC)): 106 % of control
- T/C (dose: 3.12 mg/kg/injection, schedule: Q01DX001 (ip), vehicle: Klucel (hydroxypropylcellulose) (HPC)): 104 % of control
- T/C (dose: 6.25 mg/kg/injection, schedule: Q01DX001 (ip), vehicle: Klucel (hydroxypropylcellulose) (HPC)): 107 % of control and 96 % of control

Structure (SMILES): COC(=O)C(Cc1c[nH]c2ccccc12)N1CN(C)c2ccccc2C1=O (centres undefined)
- T/C [7]: 98 % of control
- T/C [8]: 98 % of control
- T/C [9]: 90 % of control

Structure (SMILES): CN(C)CCNc1ccc2cc3ccc(N=Nc4ccc(N(C)C)cc4)cc3nc2c1
- T/C (dose: 100.0 mg/kg/injection, schedule: Q04DX003 (ip), vehicle: saline with Tween-80): 100 % of control
- T/C (dose: 200.0 mg/kg/injection, schedule: Q04DX003 (ip), vehicle: saline with Tween-80): 101 % of control
- T/C (dose: 400.0 mg/kg/injection, schedule: Q04DX003 (ip), vehicle: saline with Tween-80): 103 % of control

Structure (SMILES): CS(=O)(=O)OCCCl
- T/C (dose: 25.0 mg/kg/injection, schedule: Q01DX009 (ip), vehicle: saline with Tween-80): 105 % of control and 108 % of control
- T/C [4]: 107 % of control and 112 % of control
- T/C (dose: 75.0 mg/kg/injection, schedule: Q01DX005 (ip), vehicle: saline with Tween-80): 113 % of control and 86 % of control
- T/C (dose: 75.0 mg/kg/injection, schedule: Q01DX009 (ip), vehicle: saline with Tween-80): 102 % of control
- T/C [10]: 100 % of control
- T/C [11]: 114 % of control and 94 % of control
- T/C [5]: 111 % of control
- T/C [12]: 110 % of control

Structure (SMILES): O=C(CC(NC(=O)OCc1ccccc1)C(=O)O)OCc1ccccc1 (centres undefined)
- T/C (dose: 100.0 mg/kg/injection, schedule: Q04DX003 (ip), vehicle: saline sonified): 110 % of control
- T/C (dose: 200.0 mg/kg/injection, schedule: Q04DX003 (ip), vehicle: saline sonified): 105 % of control

Structure (SMILES): Nc1nc(Cl)nc2c1ncn2C1OC(CO)C(O)C1F (centres undefined)
- T/C (dose: 12.5 mg/kg/injection, schedule: Q01DX005 (ip), vehicle: saline): 122 % of control
- T/C [13]: 159 % of control

Structure (SMILES): NC(=S)N/N=C/c1c(O)c2cc(Cl)ccc2[nH]c1=O
- T/C [14]: 106 % of control
- T/C [11]: 112 % of control
- T/C [15]: 112 % of control

Structure (SMILES): CCn1c2ccc(C=O)cc2c2cc([N+](=O)[O-])ccc21
- T/C [1]: 92 % of control
- T/C [2]: 86 % of control
- T/C [3]: 86 % of control

Structure (SMILES): CC(CC(=O)c1ccccc1)=NCCCN=C(C)CC(=O)c1ccccc1
- T/C [4]: 112 % of control
- T/C [5]: 96 % of control
- T/C [6]: 96 % of control

Structure (SMILES): FC(F)(F)C1(C(F)(F)F)OS2(OC(C(F)(F)F)(C(F)(F)F)c3ccccc32)c2ccccc21
- T/C (dose: 100.0 mg/kg/injection, schedule: Q04DX003 (ip), vehicle: Klucel (hydroxypropylcellulose) (HPC)): 91 % of control
- T/C (dose: 200.0 mg/kg/injection, schedule: Q04DX003 (ip), vehicle: Klucel (hydroxypropylcellulose) (HPC)): 91 % of control
- T/C (dose: 400.0 mg/kg/injection, schedule: Q04DX003 (ip), vehicle: Klucel (hydroxypropylcellulose) (HPC)): 92 % of control

Structure (SMILES): CN1C2=NCCN2S(=O)(=O)c2ccccc21
- T/C [10]: 101 % of control
- T/C [12]: 110 % of control
- T/C (dose: 400.0 mg/kg/injection, schedule: Q01DX001 (ip), vehicle: saline with Tween-80): 92 % of control

Structure (SMILES): O=S(=O)(O)C1=CC(=N/Cl)/C=CC/1=N\Cl
- T/C (dose: 50.0 mg/kg/injection, schedule: Q01DX005 (ip), vehicle: saline): 114 % of control and 116 % of control and 119 % of control
- T/C (dose: 100.0 mg/kg/injection, schedule: Q01DX005 (ip), vehicle: saline): 104 % of control and 121 % of control and 124 % of control
- T/C [13]: 107 % of control and 116 % of control and 121 % of control
- T/C (dose: 400.0 mg/kg/injection, schedule: Q01DX005 (ip), vehicle: saline): 106 % of control

Structure (SMILES): O=C1OCC2=Nc3cccc4cccc(c34)N12
- T/C [1]: 101 % of control
- T/C [2]: 94 % of control
- T/C [3]: 98 % of control

Structure (SMILES): Cc1cccc(Oc2ccc(C(F)(F)F)cc2[N+](=O)[O-])c1C
- T/C [16]: 99 % of control
- T/C [17]: 99 % of control

Structure (SMILES): Nc1ccc2ccccc2c1-c1c(N)ccc2ccccc12
- T/C (dose: 6.25 mg/kg/injection, schedule: Q01DX009 (ip), vehicle: Klucel (hydroxypropylcellulose) (HPC)): 109 % of control
- T/C (dose: 12.5 mg/kg/injection, schedule: Q01DX009 (ip), vehicle: Klucel (hydroxypropylcellulose) (HPC)): 91 % of control
- T/C [18]: 102 % of control
- T/C [19]: 111 % of control

Structure (SMILES): O=C(NC1c2ccccc2Oc2ccccc21)c1ccccc1
- T/C (dose: 12.5 mg/kg/injection, schedule: Q04DX003 (ip), vehicle: distilled water + Tween-80): 93 % of control
- T/C (dose: 25.0 mg/kg/injection, schedule: Q04DX003 (ip), vehicle: distilled water + Tween-80): 92 % of control
- T/C (dose: 50.0 mg/kg/injection, schedule: Q04DX003 (ip), vehicle: distilled water + Tween-80): 93 % of control
- T/C (dose: 100.0 mg/kg/injection, schedule: Q04DX003 (ip), vehicle: distilled water + Tween-80): 93 % of control

Structure (SMILES): O=C1NC(=O)C(c2ccccc2)(c2ccccc2)C2CC3c4[nH]c5ccccc5c4CCN3CC12 (centres undefined)
- T/C (dose: 25.0 mg/kg/injection, schedule: Q01DX001 (ip), vehicle: saline): 117 % of control
- T/C (dose: 50.0 mg/kg/injection, schedule: Q01DX001 (ip), vehicle: saline): 88 % of control
- T/C (dose: 100.0 mg/kg/injection, schedule: Q01DX001 (ip), vehicle: saline): 114 % of control and 90 % of control

Structure (SMILES): Nn1c(=O)[nH][nH]c1=O
- T/C [18]: 93 % of control
- T/C [19]: 104 % of control
- T/C (dose: 100.0 mg/kg/injection, schedule: Q01DX009 (ip), vehicle: Klucel (hydroxypropylcellulose) (HPC)): 96 % of control
- T/C (dose: 200.0 mg/kg/injection, schedule: Q01DX009 (ip), vehicle: Klucel (hydroxypropylcellulose) (HPC)): 93 % of control

Structure (SMILES): CCOC(=O)C1OC(n2cnc3c(N)ncnc32)C(O)C1O (centres undefined)
- T/C [4]: 96 % of control
- T/C [16]: 103 % of control
- T/C [5]: 98 % of control
- T/C [17]: 100 % of control and 106 % of control
- T/C [6]: 124 % of control
- T/C (dose: 200.0 mg/kg/injection, schedule: Q01DX009 (ip), vehicle: saline): 101 % of control and 106 % of control
- T/C (dose: 400.0 mg/kg/injection, schedule: Q01DX009 (ip), vehicle: saline with Tween-80): 117 % of control
- T/C (dose: 400.0 mg/kg/injection, schedule: Q01DX009 (ip), vehicle: saline): 111 % of control

Structure (SMILES): COc1ccc2c(c1)OC(C)(C)c1c-2n(C)c2c(F)cccc2c1=O
- T/C [7]: 100 % of control
- T/C [8]: 101 % of control
- T/C [9]: 101 % of control

Structure (SMILES): COc1ccc2c(c1)OC(C)(C)C(c1ccccc1)=C2c1ccc(O)c([N+](=O)[O-])c1
- T/C [14]: 100 % of control
- T/C [11]: 101 % of control
- T/C [15]: 102 % of control

Structure (SMILES): COC(=O)CC(=O)C(C(=O)OC)C(CCc1ccccc1)C(C(=O)CC(=O)OC)C(=O)OC (centres undefined)
- T/C (dose: 25.0 mg/kg/injection, schedule: Q01DX001 (ip), vehicle: saline with Tween-80): 97 % of control
- T/C (dose: 50.0 mg/kg/injection, schedule: Q01DX001 (ip), vehicle: saline with Tween-80): 94 % of control
- T/C [10]: 94 % of control
